The results in this text go back to PubChem BioAssay AID248 (DTP/NCI, 2004).

Molecules are shown by their SMILES. Values joined by “and” are separate entries in the source; they are usually repeats but may differ in a detail not shown here. Equal entries are not always repeated. Inconclusive results and toxic doses are left out.

For this assay, the system named is L1210 leukemia ip in BDF1 mice, survival T/C. The experiment in a line: NCI In Vivo Anticancer Drug Screen. Data for tumor model L1210 Leukemia (intraperitoneal) in B6D2F1 (BDF1) mice. The conditions noted are these: endpoint: mean survival time, higher = longer survival. The procedure, abridged: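 Survival endpoint. Drug-treated group vs vehicle group, expressed as T divided by C. Tumor passaged by transplantation.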

Where [1] appears, read: dose: 100.0 mg/kg/injection, schedule: Q04DX003 (ip), vehicle: Klucel (hydroxypropylcellulose) (HPC).
[2] abbreviates: dose: 100.0 mg/kg/injection, schedule: Q04DX003 (ip), vehicle: saline with Tween-80.
Setting [3] is: dose: 200.0 mg/kg/injection, schedule: Q04DX003 (ip), vehicle: saline with Tween-80.
[4] abbreviates: dose: 400.0 mg/kg/injection, schedule: Q04DX003 (ip), vehicle: saline with Tween-80.
Setting [5] is: dose: 100.0 mg/kg/injection, schedule: Q04DX002 (ip), vehicle: Klucel (hydroxypropylcellulose) (HPC).
The mark [6] stands for this setting: dose: 200.0 mg/kg/injection, schedule: Q04DX002 (ip), vehicle: Klucel (hydroxypropylcellulose) (HPC).
[7] abbreviates: dose: 400.0 mg/kg/injection, schedule: Q04DX002 (ip), vehicle: Klucel (hydroxypropylcellulose) (HPC).
Where [8] appears, read: dose: 12.5 mg/kg/injection, schedule: Q04DX003 (ip), vehicle: saline.
Setting [9] is: dose: 25.0 mg/kg/injection, schedule: Q04DX003 (ip), vehicle: saline.
[10] abbreviates: dose: 100.0 mg/kg/injection, schedule: Q04DX003 (ip), vehicle: saline.
The mark [11] stands for this setting: dose: 100.0 mg/kg/injection, schedule: Q01DX009 (ip), vehicle: Klucel (hydroxypropylcellulose) (HPC).
Where [12] appears, read: dose: 200.0 mg/kg/injection, schedule: Q01DX009 (ip), vehicle: Klucel (hydroxypropylcellulose) (HPC).
Where [13] appears, read: dose: 400.0 mg/kg/injection, schedule: Q01DX009 (ip), vehicle: Klucel (hydroxypropylcellulose) (HPC).
Where [14] appears, read: dose: 100.0 mg/kg/injection, schedule: Q01DX009 (ip), vehicle: saline with Tween-80.
Where [15] appears, read: dose: 200.0 mg/kg/injection, schedule: Q01DX009 (ip), vehicle: saline with Tween-80.
The mark [16] stands for this setting: dose: 400.0 mg/kg/injection, schedule: Q01DX009 (ip), vehicle: saline with Tween-80.
[17] abbreviates: dose: 100.0 mg/kg/injection, schedule: Q01DX001 (ip), vehicle: saline.
Where [18] appears, read: dose: 200.0 mg/kg/injection, schedule: Q01DX001 (ip), vehicle: saline.
The mark [19] stands for this setting: dose: 400.0 mg/kg/injection, schedule: Q01DX001 (ip), vehicle: saline.

For the molecule `NC(=S)Nc1cccc(Cl)c1`, the T/C is, setting by setting: (dose: 25.0 mg/kg/injection, schedule: Q04DX003 (ip), vehicle: Klucel (hydroxypropylcellulose) (HPC)) 96 % of control; (dose: 50.0 mg/kg/injection, schedule: Q04DX003 (ip), vehicle: Klucel (hydroxypropylcellulose) (HPC)) 100 % of control; under setting [1], 106 % of control.
In the case of `C=C1C(=O)OC2CC(C)C3C4OC4C(O)C3(C)C(O)C12` (centres undefined), the T/C is 104 % of control (dose: 9.38 mg/kg/injection, schedule: Q01DX009 (ip), vehicle: saline with Tween-80); 106 % of control (dose: 18.75 mg/kg/injection, schedule: Q01DX009 (ip), vehicle: saline with Tween-80); 102 % of control (dose: 37.5 mg/kg/injection, schedule: Q01DX009 (ip), vehicle: saline with Tween-80).
For the molecule `N#CCCN(CCC#N)C(=O)Nc1cccc(Cl)c1`, the T/C reads like this: under setting [2], 98 % of control; under setting [3], 88 % of control; under setting [4], 91 % of control.
In the case of `Cc1ccc([N+](=O)[O-])cc1NC(=O)N(Cc1ccccc1)Cc1ccccc1`, the T/C reads like this: under setting [5], 95 % of control; under setting [6], 100 % of control; under setting [7], 106 % of control.
As for `[Cl][Pt+2][Cl].[NH-]c1ccc(Cl)cc1[NH-]`, the T/C was 178 % of control under setting [8]; 113 % of control under setting [9]; 105 % of control and 108 % of control under setting [10]; 103 % of control (dose: 800.0 mg/kg/injection, schedule: Q04DX003 (ip), vehicle: saline).
As to `CC(C)(C)OC(=O)CCC(NC(=O)OCc1ccccc1)C(=O)NN` (centres undefined), the T/C runs as follows: (dose: 50.0 mg/kg/injection, schedule: Q01DX009 (ip), vehicle: Klucel (hydroxypropylcellulose) (HPC)) 100 % of control; (dose: 75.0 mg/kg/injection, schedule: Q01DX001 (ip), vehicle: Klucel (hydroxypropylcellulose) (HPC)) 88 % of control; under setting [11], 110 % of control; under setting [1], 99 % of control; (dose: 150.0 mg/kg/injection, schedule: Q01DX001 (ip), vehicle: Klucel (hydroxypropylcellulose) (HPC)) 108 % of control; under setting [12], 100 % of control. Moreover, the T/C (dose: 200.0 mg/kg/injection, schedule: Q04DX003 (ip), vehicle: Klucel (hydroxypropylcellulose) (HPC)) was 106 % of control; the T/C (dose: 300.0 mg/kg/injection, schedule: Q01DX001 (ip), vehicle: Klucel (hydroxypropylcellulose) (HPC)) is 92 % of control; the T/C (dose: 400.0 mg/kg/injection, schedule: Q04DX003 (ip), vehicle: Klucel (hydroxypropylcellulose) (HPC)) is 105 % of control.
`CCCCCCCCC(=O)Nc1cccc(O)c1`: the T/C is, setting by setting: under setting [2], 96 % of control; under setting [3], 101 % of control; under setting [4], 96 % of control.
For `O=C(CN1CC1)Nc1ccc(NC(=O)CN2CC2)cc1`, the T/C was 116 % of control and 117 % of control (dose: 1.5 mg/kg/injection, schedule: Q01DX009 (ip), vehicle: carboxymethylcellulose (CMC)); 116 % of control (dose: 7.3 mg/kg/injection, schedule: Q01DX001 (ip), vehicle: carboxymethylcellulose (CMC)); 168 % of control (dose: 11.0 mg/kg/injection, schedule: Q01DX009 (ip), vehicle: carboxymethylcellulose (CMC)); 161 % of control (dose: 11.1 mg/kg/injection, schedule: Q01DX009 (ip), vehicle: carboxymethylcellulose (CMC)); 96 % of control and 211 % of control (dose: 16.6 mg/kg/injection, schedule: Q01DX009 (ip), vehicle: carboxymethylcellulose (CMC)); 152 % of control and 160 % of control (dose: 25.0 mg/kg/injection, schedule: Q01DX001 (ip), vehicle: carboxymethylcellulose (CMC)). Also, the T/C was 103 % of control (dose: 25.0 mg/kg/injection, schedule: Q01DX009 (ip), vehicle: carboxymethylcellulose (CMC)); 163 % of control (dose: 37.5 mg/kg/injection, schedule: Q01DX001 (ip), vehicle: carboxymethylcellulose (CMC)); 151 % of control (dose: 50.0 mg/kg/injection, schedule: Q01DX001 (ip), vehicle: carboxymethylcellulose (CMC)).
`NC(=O)c1ccccc1NC(=O)Nc1cccc(C(F)(F)F)c1`: the T/C reads like this: under setting [11], 86 % of control; under setting [5], 102 % of control; under setting [12], 89 % of control; under setting [6], 105 % of control; under setting [13], 93 % of control; under setting [7], 108 % of control.
As to `CN(C)CC(=O)c1c[nH]c(=O)[nH]c1=O`, the T/C by setting is: under setting [14], 112 % of control; under setting [15], 94 % of control; under setting [16], 102 % of control.
As to `Cc1ccc(C)c2c1C1=C(CCCC1)S2(=O)=O`, the T/C is 96 % of control under setting [17], 102 % of control under setting [18] and 104 % of control under setting [19].
Regarding `O=C(N/N=C/C=C/c1ccccc1)c1ccccc1O`, the T/C was 92 % of control under setting [11], 89 % of control under setting [12] and 95 % of control under setting [13].
With `C[n+]1c2ccccc2c(-c2c3ccccc3[n+](C)c3ccccc23)c2ccccc21`, the T/C (dose: 12.5 mg/kg/injection, schedule: Q01DX001 (ip), vehicle: Klucel (hydroxypropylcellulose) (HPC)) was 102 % of control; the T/C (dose: 25.0 mg/kg/injection, schedule: Q01DX001 (ip), vehicle: Klucel (hydroxypropylcellulose) (HPC)) was 98 % of control; the T/C (dose: 50.0 mg/kg/injection, schedule: Q01DX001 (ip), vehicle: Klucel (hydroxypropylcellulose) (HPC)) is 98 % of control.
For `Nc1nc(-c2ccccc2)nc2nc3[nH]c(=O)[nH]c(=O)c3nc12`, the T/C is 94 % of control under setting [5], 102 % of control under setting [6] and 98 % of control under setting [7].
`O=C(COc1ccccc1)Nc1cccnc1`: the T/C is 94 % of control (dose: 100.0 mg/kg/injection, schedule: Q01DX001 (ip), vehicle: Klucel (hydroxypropylcellulose) (HPC)) and 102 % of control (dose: 200.0 mg/kg/injection, schedule: Q01DX001 (ip), vehicle: Klucel (hydroxypropylcellulose) (HPC)).
As for `[Cl][Pd]([Cl])([Cl])[Cl]`, the T/C was 95 % of control under setting [8]; 98 % of control under setting [9]; 102 % of control (dose: 50.0 mg/kg/injection, schedule: Q04DX003 (ip), vehicle: saline); 90 % of control under setting [10].
For the molecule `CNc1nc2ccccc2n1C1OC(CO)C(O)C1O` (centres undefined), the T/C reads like this: under setting [17], 95 % of control; under setting [18], 98 % of control; under setting [19], 98 % of control.
Regarding `OCCOc1c(Cl)cc(Cl)cc1Cl`, the T/C runs as follows: (dose: 50.0 mg/kg/injection, schedule: Q01DX009 (ip), vehicle: saline with Tween-80) 100 % of control; under setting [14], 94 % of control and 100 % of control; under setting [2], 93 % of control; under setting [15], 100 % of control; under setting [3], 90 % of control; under setting [16], 93 % of control. The T/C under setting [4] was 111 % of control.
As to `CN(C)N=Nc1nn(C2CCCO2)cc1C(N)=O` (centres undefined), the T/C (dose: 100.0 mg/kg/injection, schedule: Q01DX005 (ip), vehicle: saline) is 150 % of control.
In the case of `CCC(=O)OCC1CCC(COC(=O)CC)CC1` (centres undefined), the T/C was 100 % of control (dose: 222.0 mg/kg/injection, schedule: Q01DX Z (ip), vehicle: methylcellulose (MC)); 96 % of control (dose: 333.0 mg/kg/injection, schedule: Q01DX Z (ip), vehicle: methylcellulose (MC)); 97 % of control (dose: 500.0 mg/kg/injection, schedule: Q01DX Z (ip), vehicle: methylcellulose (MC)).
Turning to `O=C(NCCCCCCNC(=O)Nc1ccc(C2=NCCCN2)cc1)Nc1ccc(C2=NCCCN2)cc1`, the T/C (dose: 6.25 mg/kg/injection, schedule: Q01DX Z (ip), vehicle: carboxymethylcellulose (CMC)) is 97 % of control; the T/C (dose: 12.5 mg/kg/injection, schedule: Q01DX Z (ip), vehicle: carboxymethylcellulose (CMC)) is 97 % of control; the T/C (dose: 25.0 mg/kg/injection, schedule: Q01DX Z (ip), vehicle: carboxymethylcellulose (CMC)) was 100 % of control.
`CC(=O)CC(C)(C)S(=O)(=O)O`: the T/C under setting [17] was 100 % of control, the T/C under setting [18] was 100 % of control and the T/C under setting [19] was 100 % of control.
